Columns and labels:
Human alphaherpesvirus 1 [1] = assay: Antiherpes activity was tested as percent of control of plaque-formation against BVdUr virus by 30 uM of the compound; assay type: functional, bromovinyl deoxyuridine resistant strain
Human alphaherpesvirus 1 [2] = assay: Antiherpes activity was tested as percent of control of plaque-formation against ACG (Tr7) virus by 30 uM of the compound; assay type: functional, acycloguanosine resistant strain
Human alphaherpesvirus 1 [3] = assay: Antiherpes activity was tested as percent of control of plaque-formation against HSV-1 (CL101) virus by 30 uM of the compound; assay type: functional
Human alphaherpesvirus 2 [4] = assay: Antiherpes activity was tested as percent of control of plaque-formation against HSV-2 (333) virus by 30 uM of the compound; assay type: functional
Human alphaherpesvirus 1 [5] = assay: Antiherpes activity was tested as percent of control of plaque-formation against HSV-1 (KOS) virus by 30 uM of the compound; assay type: functional
Human alphaherpesvirus 1 [6] = assay: Antiherpes activity was tested as percent of control of plaque-formation against ACG (S1) virus by 30 uM of the compound; assay type: functional, acycloguanosine resistant strain
Human alphaherpesvirus 1 [7] = assay: Antiherpes activity was tested as percent of control of plaque-formation against ACG (Tr7) virus by 100 uM of the compound; assay type: functional, acycloguanosine resistant strain
Human alphaherpesvirus 2 [8] = assay: Antiherpes activity was tested as percent of control of plaque-formation against HSV-2 (333) virus by 100 uM of the compound; assay type: functional
Human alphaherpesvirus 1 [9] = assay: Antiherpes activity was tested as percent of control of plaque-formation against BVdUr virus by 100 uM of the compound; assay type: functional, bromovinyl deoxyuridine resistant strain
Human alphaherpesvirus 1 [10] = assay: Binding affinity against HSV-1(KOS); assay type: functional, organism-based
Human alphaherpesvirus 1 [11] = assay: Antiherpes activity was tested as percent of control of plaque-formation against HSV-1 (KOS) virus by 100 uM of the compound; assay type: functional
[12] = Antiherpes activity was tested as percent of control of plaque-formation against PFAr virus by 100 uM of the compound; assay type: functional, Herpes simplex virus unknown type
Human alphaherpesvirus 1 [13] = assay: Antiherpes activity was tested as percent of control of plaque-formation against ACG (S1) virus by 100 uM of the compound; assay type: functional, acycloguanosine resistant strain
Human alphaherpesvirus 2 [14] = assay: Binding affinity against HSV-2(333); assay type: functional, organism-based
Human alphaherpesvirus 2 [15] = assay: Antiherpes activity was tested as percent of control of plaque-formation against HSV-2 (CEU-G) virus by 100 uM of the compound; assay type: functional
Human alphaherpesvirus 1 [16] = assay: Antiherpes activity was tested as percent of control of plaque-formation against HSV-1 (CL101) virus by 100 uM of the compound; assay type: functional
Human alphaherpesvirus 1 [17] = assay: Antiherpes activity was tested as percent of control of plaque-formation against HSV-1 (KOS) virus by 5 uM of the compound; assay type: functional
Human alphaherpesvirus 1 [18] = assay: Antiherpes activity was tested as percent of control of plaque-formation against BVdUr virus by 5 uM of the compound; assay type: functional, bromovinyl deoxyuridine resistant strain
[19] = Antiherpes activity was tested as percent of control of plaque-formation against PFAr virus by 5 uM of the compound; assay type: functional, Herpes simplex virus unknown type
Human alphaherpesvirus 1 [20] = assay: Antiherpes activity was tested as percent of control of plaque-formation against ACG (S1) virus by 5 uM of the compound; assay type: functional, acycloguanosine resistant strain
Human alphaherpesvirus 1 [21] = assay: Antiherpes activity was tested as percent of control of plaque-formation against ACG (Tr7) virus by 5 uM of the compound; assay type: functional, acycloguanosine resistant strain

## O=c1[nH]c(=O)n([C@H]2C[C@H](O)[C@@H](CO)O2)cc1/C=C/Br [BRIVUDINE]
Human alphaherpesvirus 1 [1]
  Control: 52%
Human alphaherpesvirus 1 [2]
  Control: 0.8%
Human alphaherpesvirus 1 [3]
  Control: 0.4%
Human alphaherpesvirus 2 [4]
  Control: 1.7%
Human alphaherpesvirus 1 [5]
  Control: 0.1%
Human alphaherpesvirus 1 [6]
  Control: 3.7%

## O=c1[nH]c(=O)n([C@H]2C[C@H](O)[C@@H](CO)O2)cc1I [IDOXURIDINE]
Human alphaherpesvirus 1 [7]
  Control: 2.6%
Human alphaherpesvirus 2 [8]
  Control: 2.8%
Human alphaherpesvirus 1 [9]
  Control: 14%
Human alphaherpesvirus 1 [10]
  Ki: 1840 nM
Human alphaherpesvirus 1 [11]
  Control: 0.27%
[12]
  Control: 0.1%
Human alphaherpesvirus 1 [13]
  Control: 22%
Human alphaherpesvirus 2 [14]
  Ki: 3980 nM
Human alphaherpesvirus 2 [15]
  Control: 9.3%
Human alphaherpesvirus 1 [16]
  Control: 1.6%

## Nc1nc2c(ncn2COCCO)c(=O)[nH]1 [ACYCLOVIR]
Human alphaherpesvirus 1 [17]
  Control: 6.5%
Human alphaherpesvirus 1 [18]
  Control: 0.7%
[19]
  Control: 100%
Human alphaherpesvirus 1 [20]
  Control: 100%
Human alphaherpesvirus 1 [21]
  Control: 85%
